The values below are quoted from earlier work in patent publication US6743953B2, “Process for the preparation of xanthophyll crystals” (Kancor Flavours & Extracts Ltd., priority 2002, dated 2004).

Read-outs that look alike come from different tables or passages of the source.

Test in data set [1]: not given
This is another data set of the same source.

In the case of `CC1=C[C@H](O)CC(C)(C)[C@H]1/C=C/C(C)=C/C=C/C(C)=C/C=C/C=C(C)/C=C/C=C(C)/C=C/C1=C(C)C[C@@H](O)CC1(C)C` [Lutein, (3R,3′R,6′R)-β,ε-carotene-3,3′-diol], the “Solubility of Lutein in Solvent” value is given as 800 Mg/litre (solvent Acetone); 600 Mg/litre (solvent Benzene); 6000 Mg/litre (solvent Chloroform); 4000 Mg/litre (solvent Cyclohexanone); 800 Mg/litre (solvent Dichloromethane); 800 Mg/litre (solvent Ethyl Acetate). Also, the “Solubility of Lutein in Solvent” value by setting is: (solvent Hexane) 20 Mg/litre; (solvent Tetrahydrofuran) 8000 Mg/litre; (solvent Toluene) 400 Mg/litre. Moreover, the “Stability of Lutein in Solvent” value was “Good” in data set [1] (solvent Acetone); “Good” in data set [1] (solvent Benzene); “Good” in data set [1] (solvent Chloroform); “Poor” in data set [1] (solvent Cyclohexanone); “Good” in data set [1] (solvent Dichloromethane); “Good” in data set [1] (solvent Ethyl Acetate). Moreover, the “Stability of Lutein in Solvent” value in data set [1] (solvent Hexane), in data set [1] (solvent Tetrahydrofuran) and in data set [1] (solvent Toluene) was “Good” in each case.
